Here are results for 15 molecules from patent US9938261B2, “Heterocyclic compounds and methods of use thereof” (AMBIT BIOSCIENCES CORPORATION, priority 2011, dated 2018).

One assay addresses T1, FLT3 (Homo sapiens, UniProt P36888).
T1 construct: made in house
T1 sequence (P36888 27-993): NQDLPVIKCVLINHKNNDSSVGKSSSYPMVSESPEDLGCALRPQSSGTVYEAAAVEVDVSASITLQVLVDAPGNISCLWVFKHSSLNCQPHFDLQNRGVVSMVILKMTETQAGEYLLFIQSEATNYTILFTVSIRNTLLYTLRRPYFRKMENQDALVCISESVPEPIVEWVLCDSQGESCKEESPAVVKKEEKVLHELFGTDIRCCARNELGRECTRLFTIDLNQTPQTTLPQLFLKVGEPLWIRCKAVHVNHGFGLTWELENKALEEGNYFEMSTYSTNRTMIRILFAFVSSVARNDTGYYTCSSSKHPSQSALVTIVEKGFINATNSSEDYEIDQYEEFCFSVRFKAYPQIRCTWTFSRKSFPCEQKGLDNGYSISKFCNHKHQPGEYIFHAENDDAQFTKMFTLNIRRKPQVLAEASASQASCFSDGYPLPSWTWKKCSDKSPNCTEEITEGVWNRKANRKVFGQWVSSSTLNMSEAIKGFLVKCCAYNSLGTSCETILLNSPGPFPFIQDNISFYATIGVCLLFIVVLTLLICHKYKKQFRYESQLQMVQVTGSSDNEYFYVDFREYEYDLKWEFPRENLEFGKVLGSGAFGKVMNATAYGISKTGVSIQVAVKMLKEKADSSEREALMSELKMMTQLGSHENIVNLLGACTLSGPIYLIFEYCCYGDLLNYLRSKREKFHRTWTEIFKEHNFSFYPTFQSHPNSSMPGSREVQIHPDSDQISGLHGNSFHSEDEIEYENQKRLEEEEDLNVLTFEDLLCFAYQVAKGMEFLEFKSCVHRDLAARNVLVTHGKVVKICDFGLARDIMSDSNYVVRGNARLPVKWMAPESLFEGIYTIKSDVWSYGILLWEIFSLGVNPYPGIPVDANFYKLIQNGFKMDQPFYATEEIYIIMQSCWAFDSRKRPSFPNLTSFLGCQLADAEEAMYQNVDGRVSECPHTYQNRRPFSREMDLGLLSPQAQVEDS
The experiment in a line: Competition binding assay, FLT3 Kd. In short, it runs like this: (§1)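 Read-out is quantitative PCR of kinase recovered from affinity beads after competition with test compound. Binding reached equilibrium over 1 hour at room temperature; Kd values come from eleven-point threefold serial dilutions.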

The target of another assay is T2, KIT (Homo sapiens, UniProt P10721).
T2 construct: made in house
The experiment in a line: Competition binding assay, KIT Kd. In outline: as §1

A further assay deals with M-NFS-60 cells. The experiment in a line: M-NFS-60 cell proliferation assay (Alamar Blue). In kind it is cell-based, mouse. As to conditions: Mus musculus; 72 hours incubation, M-CSF 20 ng/mL; read-out: CSF1R M-NFS-60 CTB:IC50. In outline: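 Mouse M-NFS-60 cells growing on 20 ng/mL M-CSF in RPMI/10% FBS were exposed to compounds (9 half-log concentrations, 0.5% DMSO) for 72 h at 37 °C. Viability read by Alamar Blue fluorescence (ex 560/em 590 nm, 3 h). IC50 = 50% proliferation inhibition versus control, mean of duplicates.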

The next assay concerns the target T3, PDGFRβ (Homo sapiens, UniProt P09619).
T3 construct: made in house
The experiment in a line: Competition binding assay, PDGFRβ Kd. In outline: as §1

Assay [1] has as its target T4, CSF1R (Homo sapiens, UniProt P07333). The experiment in a line: HEK293 CSF1R phosphorylation MSD assay. It counts as cell-based. Also noted: expressed in transfected cells; host or cells: HEK293. As to conditions: 2 h compound, human M-CSF 50 ng/mL for 5 min; read-out: HEK293 pCSF1R M-CSF MSD:IC50. In outline:
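HEK293 cells expressing CSF1R-FKBP were pretreated 2 h at 37° C with 9 half-log concentrations of compound (0.5% DMSO final), then stimulated 5 min with 50 ng/mL human M-CSF. Lysates captured on biotin-FK506 plates; phosphotyrosine detected by MSD electrochemiluminescence. IC50 versus DMSO, averaged from duplicate plates.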

Assay [2] has as its target T4, CSF1R. The experiment in a line: Competition binding assay, CSF1R Kd. Also noted: made in house. In short, it runs like this:
as §1

As a reminder, the Kd is the free concentration of one partner at which half of the binding sites on the other are occupied at equilibrium, for simple one-to-one binding. The low end stands for higher affinity, the high end for lower affinity. A word on the IC50: it is the concentration at which inhibition is half-maximal.

Molecules are shown by their SMILES.

T3 sequence (P09619 33-1106): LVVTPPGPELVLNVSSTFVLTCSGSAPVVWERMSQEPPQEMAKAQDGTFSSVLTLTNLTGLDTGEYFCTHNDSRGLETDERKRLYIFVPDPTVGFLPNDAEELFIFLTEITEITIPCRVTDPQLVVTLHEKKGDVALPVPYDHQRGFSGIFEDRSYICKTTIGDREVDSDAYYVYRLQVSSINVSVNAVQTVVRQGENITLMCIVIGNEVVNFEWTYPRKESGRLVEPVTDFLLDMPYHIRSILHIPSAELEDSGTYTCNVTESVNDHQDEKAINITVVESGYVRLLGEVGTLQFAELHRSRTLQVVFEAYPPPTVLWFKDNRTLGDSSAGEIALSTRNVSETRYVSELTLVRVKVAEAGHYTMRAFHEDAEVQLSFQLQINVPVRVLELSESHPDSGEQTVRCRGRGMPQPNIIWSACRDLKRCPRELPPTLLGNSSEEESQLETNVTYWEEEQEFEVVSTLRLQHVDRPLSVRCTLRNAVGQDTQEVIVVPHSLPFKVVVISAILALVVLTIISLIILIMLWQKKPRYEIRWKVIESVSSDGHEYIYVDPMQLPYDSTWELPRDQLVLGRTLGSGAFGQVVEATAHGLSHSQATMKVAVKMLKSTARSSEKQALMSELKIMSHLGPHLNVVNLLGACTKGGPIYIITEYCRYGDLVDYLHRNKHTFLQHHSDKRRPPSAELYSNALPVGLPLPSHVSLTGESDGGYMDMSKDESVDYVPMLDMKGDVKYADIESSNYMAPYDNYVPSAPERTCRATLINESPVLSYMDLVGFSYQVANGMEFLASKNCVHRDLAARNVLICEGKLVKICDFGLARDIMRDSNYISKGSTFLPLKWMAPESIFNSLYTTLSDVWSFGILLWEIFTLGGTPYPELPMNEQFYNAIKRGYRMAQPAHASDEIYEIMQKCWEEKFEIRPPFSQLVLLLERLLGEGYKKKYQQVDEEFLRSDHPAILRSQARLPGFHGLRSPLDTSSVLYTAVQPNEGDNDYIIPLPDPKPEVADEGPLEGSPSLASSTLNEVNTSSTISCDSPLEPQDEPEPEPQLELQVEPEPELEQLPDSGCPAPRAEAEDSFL
T2 sequence (P10721 26-976): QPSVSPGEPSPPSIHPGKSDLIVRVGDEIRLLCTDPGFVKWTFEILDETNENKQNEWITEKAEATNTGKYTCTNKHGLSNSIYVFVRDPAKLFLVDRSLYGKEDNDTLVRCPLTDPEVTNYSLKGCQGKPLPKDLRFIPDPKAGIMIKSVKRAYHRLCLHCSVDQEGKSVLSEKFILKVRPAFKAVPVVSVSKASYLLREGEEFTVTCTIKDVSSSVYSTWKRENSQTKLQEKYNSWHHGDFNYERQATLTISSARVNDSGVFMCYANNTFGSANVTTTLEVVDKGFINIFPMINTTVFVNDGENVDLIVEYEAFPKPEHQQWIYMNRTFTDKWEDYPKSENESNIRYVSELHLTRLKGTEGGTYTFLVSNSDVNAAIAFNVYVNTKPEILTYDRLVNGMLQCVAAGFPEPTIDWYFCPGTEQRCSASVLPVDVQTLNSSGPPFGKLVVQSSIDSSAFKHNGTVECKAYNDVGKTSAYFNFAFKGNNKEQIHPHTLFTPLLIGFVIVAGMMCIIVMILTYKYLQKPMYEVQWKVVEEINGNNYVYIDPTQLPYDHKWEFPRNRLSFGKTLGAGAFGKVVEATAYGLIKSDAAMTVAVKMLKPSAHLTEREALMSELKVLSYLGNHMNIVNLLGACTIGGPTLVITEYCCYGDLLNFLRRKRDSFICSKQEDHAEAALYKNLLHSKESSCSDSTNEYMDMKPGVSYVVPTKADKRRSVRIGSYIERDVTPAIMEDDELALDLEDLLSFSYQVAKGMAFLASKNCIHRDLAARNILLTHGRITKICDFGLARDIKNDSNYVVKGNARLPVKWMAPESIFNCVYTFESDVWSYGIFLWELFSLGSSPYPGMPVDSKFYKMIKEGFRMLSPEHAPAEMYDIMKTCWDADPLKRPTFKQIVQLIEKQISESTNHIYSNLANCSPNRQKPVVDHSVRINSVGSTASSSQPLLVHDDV
T4 sequence (P07333 20-972): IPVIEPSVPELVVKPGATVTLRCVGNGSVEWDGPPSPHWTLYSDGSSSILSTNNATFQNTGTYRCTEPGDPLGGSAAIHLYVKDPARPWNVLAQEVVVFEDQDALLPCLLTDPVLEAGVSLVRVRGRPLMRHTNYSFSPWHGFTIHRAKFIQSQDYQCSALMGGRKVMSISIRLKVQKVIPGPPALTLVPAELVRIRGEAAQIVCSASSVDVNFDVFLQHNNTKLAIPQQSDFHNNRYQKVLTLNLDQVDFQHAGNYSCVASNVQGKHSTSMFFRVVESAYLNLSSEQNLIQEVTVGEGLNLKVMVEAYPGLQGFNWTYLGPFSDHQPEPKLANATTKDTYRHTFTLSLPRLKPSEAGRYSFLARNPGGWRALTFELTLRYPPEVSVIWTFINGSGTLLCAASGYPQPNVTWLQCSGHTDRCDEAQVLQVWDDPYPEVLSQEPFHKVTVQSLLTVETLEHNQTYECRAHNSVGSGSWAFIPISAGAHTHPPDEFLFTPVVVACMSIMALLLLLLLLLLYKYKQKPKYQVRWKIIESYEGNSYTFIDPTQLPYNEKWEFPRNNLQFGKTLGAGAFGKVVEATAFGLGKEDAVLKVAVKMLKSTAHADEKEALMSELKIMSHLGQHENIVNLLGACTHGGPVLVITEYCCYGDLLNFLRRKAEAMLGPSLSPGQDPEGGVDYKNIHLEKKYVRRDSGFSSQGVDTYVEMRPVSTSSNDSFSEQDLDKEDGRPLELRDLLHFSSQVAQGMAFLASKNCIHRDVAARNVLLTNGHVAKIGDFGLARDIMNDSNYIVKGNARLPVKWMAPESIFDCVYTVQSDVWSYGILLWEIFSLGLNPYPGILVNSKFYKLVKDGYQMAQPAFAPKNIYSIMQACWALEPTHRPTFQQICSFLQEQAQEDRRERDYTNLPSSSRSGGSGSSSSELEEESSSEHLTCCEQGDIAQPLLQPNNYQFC

For `COc1cc2ncn(Cc3ccc4nc(NCC5CCCCC5)sc4c3)c2cc1OC` [Example 28, N-(cyclohexylmethyl)-6-((5,6-dimethoxy-1H-benzo[d]imidazol-1-yl)methyl)benzo[d]thiazol-2-amine], the Kd at FLT3 is at most 200 nM; on KIT, at most 100 nM; at PDGFRβ, at most 50 nM; on CSF1R [2], 5 to 20 nM. In addition, the IC50 with M-NFS-60 cells fell in the range of 50 to 400 nM; on CSF1R [1], 50 to 200 nM.

For `O[C@@H]1CCCC[C@H]1Nc1nc2ccc(Cn3cnc4cc(Br)cnc43)cc2s1` [Example 29, (1R,2R)-2-((6-((6-bromo-3H-imidazo[4,5-b]pyridin-3-yl)methyl)benzo[d]thiazol-2-yl)amino)cyclohexanol], the Kd on FLT3 was 200 to 1000 nM; on KIT, at most 100 nM; on PDGFRβ, 50 to 500 nM; on CSF1R [2] it was 5 to 20 nM. The IC50 is 50 to 400 nM in the assay with M-NFS-60 cells and at most 50 nM on CSF1R [1].

For the molecule `COc1ccccc1Nc1nc2ccc(Cn3cnc4cc(OC)c(OC)cc43)cc2s1` [Example 30, 6-((5,6-dimethoxy-1H-benzo[d]imidazol-1-yl)methyl)-N-(2-methoxyphenyl)benzo[d]thiazol-2-amine], the Kd on FLT3 is 1000 to 5000 nM; on KIT, at most 100 nM; at PDGFRβ, 50 to 500 nM; on CSF1R [2], at most 5 nM. Also, the IC50 in the assay with M-NFS-60 cells lay in the range of 50 to 400 nM; on CSF1R [1], 50 to 200 nM.

For the molecule `COc1cc2ncn(Cc3ccc4nc(Nc5ccccc5O)sc4c3)c2cc1OC` [Example 31, 2-((6-((5,6-dimethoxy-1H-benzo[d]imidazol-1-yl)methyl)benzo[d]thiazol-2-yl)amino)phenol], the Kd on FLT3 was 1000 to 5000 nM; on KIT it was 100 to 500 nM; at PDGFRβ, 50 to 500 nM; on CSF1R [2], at most 5 nM. Moreover, the IC50 in the assay on M-NFS-60 cells was over 1500 nM; at CSF1R [1], over 500 nM.

Regarding `COc1ccc2ncn(Cc3ccc4nc(N[C@@H]5CCCC[C@H]5O)sc4c3)c2c1` [Example 67, (1R,2R)-2-((6-((6-methoxy-1H-benzo[d]imidazol-1-yl)methyl)benzo[d]thiazol-2-yl)amino)cyclohexanol], the Kd on FLT3 is 1000 to 5000 nM; at KIT it was at most 100 nM; at PDGFRβ, 50 to 500 nM; on CSF1R [2], 5 to 20 nM. Further, the IC50 in the assay with M-NFS-60 cells fell in the range of 50 to 400 nM; on CSF1R [1], 50 to 200 nM.

For the molecule `COc1ccc2c(c1)ncn2Cc1ccc2nc(N[C@@H]3CCCC[C@H]3O)sc2c1` [Example 68, (1R,2R)-2-((6-((5-methoxy-1H-benzo[d]imidazol-1-yl)methyl)benzo[d]thiazol-2-yl)amino)cyclohexanol], the equilibrium dissociation constant (Kd) lay within 1000 to 5000 nM at FLT3, 100 to 500 nM at KIT, 50 to 500 nM at PDGFRβ and 5 to 20 nM on CSF1R [2]. Further, the IC50 in the assay on M-NFS-60 cells and at CSF1R [1] was at most 50 nM in each case.

Turning to `O[C@@H]1Cc2ccccc2[C@H]1Nc1nc2ccc(Cn3cnc4cc(F)cnc43)cc2s1` [Example 69, (1R,2R)-1-((6-((6-fluoro-3H-imidazo[4,5-b]pyridin-3-yl)methyl)benzo[d]thiazol-2-yl)amino)-2,3-dihydro-1H-inden-2-ol], the Kd is 1000 to 5000 nM on FLT3, 100 to 500 nM at KIT, at most 50 nM at PDGFRβ and at most 5 nM on CSF1R [2]. Besides, the IC50 fell in the range of 50 to 400 nM in the assay on M-NFS-60 cells and 50 to 200 nM at CSF1R [1].

In the case of `O[C@@H]1CCCC[C@H]1Nc1nc2ccc(Cn3cnc4cc(F)cnc43)cc2s1` [Example 70, (1R,2R)-2-((6-((6-fluoro-3H-imidazo[4,5-b]pyridin-3-yl)methyl)benzo[d]thiazol-2-yl)amino)cyclohexanol], the Kd at FLT3 is 1000 to 5000 nM; at KIT, at most 100 nM; at PDGFRβ it was 50 to 500 nM; at CSF1R [2] it was at most 5 nM. Also, the IC50 in the assay on M-NFS-60 cells was 50 to 400 nM; on CSF1R [1], at most 50 nM.

Regarding `O[C@@H]1CCCC[C@H]1Nc1nc2ccc(Cn3cnc4ccncc43)cc2s1` [Example 71, (1R,2R)-2-((6-((3H-imidazo[4,5-c]pyridin-3-yl)methyl)benzo[d]thiazol-2-yl)amino)cyclohexanol], the Kd on FLT3 was over 5000 nM; at KIT it was over 2000 nM; on PDGFRβ, 500 to 2000 nM; at CSF1R [2], 5 to 20 nM. Moreover, the values for the IC50 in the assay with M-NFS-60 cells and at CSF1R [1] were 400 to 1500 nM and 200 to 500 nM, respectively.

For `O[C@@H]1CCCC[C@H]1Nc1nc2ccc(Cn3cnc4cnccc43)cc2s1` [Example 72, (1R,2R)-2-((6-((1H-imidazo[4,5-c]pyridin-1-yl)methyl)benzo[d]thiazol-2-yl)amino)cyclohexanol], the Kd at FLT3 is over 5000 nM; at KIT, over 2000 nM; at PDGFRβ it was 500 to 2000 nM; on CSF1R [2] it was 5 to 20 nM. Moreover, the concentration for half-maximal inhibition (IC50) with M-NFS-60 cells was 400 to 1500 nM; at CSF1R [1], 50 to 200 nM.

For the molecule `O[C@@H]1CCCC[C@H]1Nc1nc2ccc(Cn3cnc4ccc(Br)nc43)cc2s1` [Example 78, (1R,2R)-2-((6-((5-bromo-3H-imidazo[4,5-b]pyridin-3-yl)methyl)benzo[d]thiazol-2-yl)amino)cyclohexanol], the Kd was at most 200 nM on FLT3, at most 100 nM on KIT, at most 50 nM at PDGFRβ and 5 to 20 nM on CSF1R [2]. In addition, the IC50 in the assay on M-NFS-60 cells and on CSF1R [1] was at most 50 nM throughout.

Consider `COC(=O)c1cnc2c(c1)ncn2Cc1ccc2nc(N[C@@H]3CCCC[C@H]3O)sc2c1` [Example 79, methyl 3-((2-(((1R,2R)-2-hydroxycyclohexyl)amino)benzo[d]thiazol-6-yl)methyl)-3H-imidazo[4,5-b]pyridine-6-carboxylate], for which the Kd at FLT3 was 200 to 1000 nM; at KIT, at most 100 nM; at PDGFRβ, at most 50 nM; at CSF1R [2], 5 to 20 nM. The IC50 in the assay on M-NFS-60 cells and on CSF1R [1] was at most 50 nM in each case.

For the molecule `CC(=O)c1ccc2ncn(Cc3ccc4nc(N[C@@H]5CCCC[C@H]5O)sc4c3)c2n1` [Example 88, 1-(3-((2-(((1R,2R)-2-hydroxycyclohexyl)amino)benzo[d]thiazol-6-yl)methyl)-3H-imidazo[4,5-b]pyridin-5-yl)ethanone], the Kd on FLT3 is 200 to 1000 nM; on KIT, at most 100 nM; at PDGFRβ, 50 to 500 nM; on CSF1R [2], at most 5 nM. The IC50 is at most 50 nM in the assay with M-NFS-60 cells and 50 to 200 nM on CSF1R [1].

For `CNC(=O)c1cnc2c(c1)ncn2Cc1ccc2nc(N[C@@H]3CCCC[C@H]3O)sc2c1` [Example 89, 3-((2-(((1R,2R)-2-hydroxycyclohexyl)amino)benzo[d]thiazol-6-yl)methyl)-N-methyl-3H-imidazo[4,5-b]pyridine-6-carboxamide], the Kd is 1000 to 5000 nM at FLT3, at most 100 nM on KIT, at most 50 nM on PDGFRβ and 5 to 20 nM on CSF1R [2]. Besides, the results for the IC50 with M-NFS-60 cells and at CSF1R [1] were 50 to 400 nM and 50 to 200 nM, respectively.

Take `N=C(NO)c1cnc2c(c1)ncn2Cc1ccc2nc(N[C@@H]3CCCC[C@H]3O)sc2c1` [Example 90, N-hydroxy-3-((2-(((1R,2R)-2-hydroxycyclohexyl)amino)benzo[d]thiazol-6-yl)methyl)-3H-imidazo[4,5-b]pyridine-6-carboximidamide]: the Kd at FLT3 fell in the range of 1000 to 5000 nM; on KIT it was 100 to 500 nM; at PDGFRβ, 50 to 500 nM; on CSF1R [2] it was 5 to 20 nM. The values for the IC50 in the assay with M-NFS-60 cells and at CSF1R [1] were 50 to 400 nM and 50 to 200 nM, respectively.
